{"source": "paper PMC3832036", "about": "“The crystal structures of the tri-functional Chloroflexus aurantiacus and bi-functional Rhodobacter sphaeroides malyl-CoA lyases and comparison with CitE-like superfamily enzymes and malate synthases” (BMC Structural Biology, 2013)", "molecules": {"B1": {"name": "malyl-CoA lyase of Chloroflexus aurantiacus (enzyme, Chloroflexus aurantiacus OK-70-fl, UniProt S5N020 1-348, looked up)", "chain": "MRKLAHNFYKPLAIGAPEPIRELPVRPERVVHFFPPHVEKIRARIPEVAKQVDVLCGNLEDAIPMDAKEAARNGFIEVVKATDFGDTALWVRVNALNSPWVLDDIAEIVAAVGNKLDVIMIPKVEGPWDIHFVDQYLALLEARHQIKKPILIHALLETAQGMVNLEEIAGASPRMHGFSLGPADLAASRGMKTTRVGGGHPFYGVLADPQEGQAERPFYQQDLWHYTIARMVDVAVAHGLRAFYGPFGDIKDEAACEAQFRNAFLLGCTGAWSLAPNQIPIAKRVFSPDVNEVLFAKRILEAMPDGSGVAMIDGKMQDDATWKQAKVIVDLARMIAKKDPDLAQAYGL", "notes": "Malyl-CoA lyase of Chloroflexus aurantiacus OK-70-fl, GenBank AGR55786; gene amplified from chromosomal DNA with primers upstream (NdeI at the start codon) and downstream of the gene, cloned into pT7-7; 348 residues (models run from Arg2 to Leu348, the native C-terminus); calculated 38.4 kDa per monomer; Hexamer (dimer of trimers); No tag is named for this construct; also called MCLC; MCL; …"}, "B2": {"name": "malyl-CoA lyase of Rhodobacter sphaeroides (enzyme, Rhodobacter sphaeroides 2.4.1)", "chain": "MSFRLQPAPPARPNRCQLFGPGSRPALFEKMAASAADVINLDLEDSVAPDDKAQARANIIEAINGLDWGRKYLSVRINGLDTPFWYRDVVDLLEQAGDRLDQIMIPKVGCAADVYAVDALVTAIERAKGRTKPLSFEVIIESAAGIAHVEEIAASSPRLQAMSLGAADFAASMGMQTTGIGGTQENYYMLHDGQKHWSDPWHWAQAAIVAACRTHGILPVDGPFGDFSDDEGFRAQARRSATLGMVGKWAIHPKQVALANEVFTPSETAVTEAREILAAMDAAKARGEGATVYKGRLVDIASIKQAEVIVRQAEMISA", "notes": "Malyl-CoA lyase of Rhodobacter sphaeroides 2.4.1, GenBank ACJ71673; model 4L9Z holds Ser2 or Phe3 through Met315 with only the C-terminal three residues missing (lid domain residues 264-318); 36.8 kDa per monomer; Hexamer (dimer of trimers); The His10 tag had no electron density in the crystals; also called MCLR; MCL; source: E. coli BL21(DE3), purified (Ni-Sepharose, gel filtration); not shown: …"}}, "key": {"MCLR [1]": {"target": "T1, MCLR (Cereibacter sphaeroides, UniProt Q3J5L6)", "T1 construct": "gene mcl1", "details": "Mg2+; pH 8.5; two closed active sites; not intentionally added, modelled from density"}, "MCLR [2]": {"target": "T1, MCLR", "details": "glyoxylate and Mg2+ present; pH 8.5; one of the closed active sites"}, "MCLR [3]": {"target": "T1, MCLR", "details": "0.5 mM acetyl-CoA, 100 mM pyruvate, 5 mM MgCl2, MOPS/KOH pH 7.5"}, "[4]": {"target": "the molecule itself", "experiment": "SEC; Superdex 200 10/30 GL, 20 mM Tris/HCl pH 7.5, 2 mM MgCl2, 100 mM NaCl, 4°C; molecular weight against protein standards"}}}
{"molecule": "O=CC(=O)O", "note": "[GLX, glyoxylate]", "values": [{"measurement": "X-ray crystal structure, glyoxylate carried over from E. coli, 2.1 A", "setting": "MCLR [1]", "value": "active sites contained electron density that allowed modeling of glyoxylate molecules together with magnesium ions"}]}
{"molecule": "CCC(=O)SCCNC(=O)CCNC(=O)[C@H](O)C(C)(C)COP(=O)(O)OP(=O)(O)OC[C@H]1O[C@@H](n2cnc3c(N)ncnc32)[C@H](O)[C@@H]1OP(=O)(O)O", "note": "[PCO, propionyl-CoA]", "values": [{"measurement": "X-ray crystal structure, crystal soaking, 2.1 A", "setting": "MCLR [2]", "value": "one of these closed active sites was also occupied by propionyl-CoA"}]}
{"molecule": "CC(=O)C(=O)O", "note": "[PYR, pyruvate]", "values": [{"measurement": "reversed phase HPLC of citramalyl-CoA formation", "setting": "MCLR [3]", "value": "formation of citramalyl-CoA was confirmed by reversed phase HPLC analysis"}]}
{"molecule": "B1", "values": [{"measurement": "stoichiometry N", "setting": "[4]", "value": 6}]}
{"molecule": "B2", "values": [{"measurement": "stoichiometry N", "setting": "[4]", "value": 6}]}
